According to the supplement of paper PMC8671470:

Key:
Settings in all cases: 72 h
BV-173 [1] = tested on: BV-173
Procedure, shortened: (§1)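 Fifteen myeloid leukaemia cell lines were seeded in RPMI 1640 at a density titrated to the linear growth range. Each line went into 384-well plates with compounds acoustically pre-printed at five tenfold doses from 1 to 10,000 nM, in duplicate, and was incubated for 72 h at 37 °C with 5% CO2. Luminescent ATP viability was normalised to vehicle and to a positive control at 10 µM. The IC50 came from four-parameter log-logistic dose–response fits.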

HEL [2] = tested on: HEL
Procedure, shortened: as §1

HL-60 [3] = tested on: HL-60
Procedure, shortened: as §1

K-562 [4] = tested on: K-562
Procedure, shortened: as §1

KCL-22 [5] = tested on: KCL-22
Procedure, shortened: as §1

KG-1 = tested on: KG-1
Procedure, shortened: as §1

KU-812 [6] = tested on: KU-812
Procedure, shortened: as §1

LAMA-84 [7] = tested on: LAMA-84
Procedure, shortened: as §1

ML-2 [8] = tested on: ML-2
Procedure, shortened: as §1

MOLM-13 = tested on: MOLM-13
Procedure, shortened: as §1

MV4-11 = tested on: MV4-11
Procedure, shortened: as §1

Mono-Mac-6 [9] = tested on: Mono-Mac-6
Procedure, shortened: as §1

NOMO-1 [10] = tested on: NOMO-1
Procedure, shortened: as §1

SHI-1 [11] = tested on: SHI-1
Procedure, shortened: as §1

THP-1 = tested on: THP-1
Procedure, shortened: as §1

HL-60 [12] = experiment: cell viability (% survival relative to DMSO control); higher = less cytotoxic
Procedure, shortened: (§2)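 A rescreen of the full library used HL-60 cells in RPMI 1640 with 10% FBS on 384-well plates, run in duplicate at five tenfold concentrations (1–10,000 nM). Each screen included DMSO or 100 nM of one of three metabolic inhibitors and ran 72 h at 37 °C, 5% CO2. CellTiter-Glo viability was scaled between DMSO and 10 μM proteasome-inhibitor wells. Any area under the curve comes from four-parameter log-logistic fits with drc and PharmacoGx.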

BV-173 [13] = experiment: cell viability (% survival relative to DMSO control, bortezomib = 0%); higher = less cytotoxic
Procedure, shortened: (§3)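 Seeding density for each of the 10 AML and 5 CML cell lines was titrated to the linear growth range. Cells went into 384-well plates pre-printed in duplicate with compounds at 1, 10, 100, 1000 or 10000 nM and were held for 72 h at 37 °C with 5% CO2. CellTiter-Glo luminescence then provided the readout. Percent survival is expressed relative to vehicle at 100% and a 10 µM positive control at 0%, averaged over duplicates.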

HEL [14] = experiment: as above
Procedure, shortened: as §3

HL-60 [15] = experiment: as above
Procedure, shortened: as §3

K-562 [16] = experiment: as above
Procedure, shortened: as §3

KCL-22 [17] = experiment: as above
Procedure, shortened: as §3

KU-812 [18] = experiment: as above
Procedure, shortened: as §3

LAMA-84 [19] = experiment: as above
Procedure, shortened: as §3

ML-2 [20] = experiment: as above
Procedure, shortened: as §3

Mono-Mac-6 [21] = experiment: as above
Procedure, shortened: as §3

NOMO-1 [22] = experiment: as above
Procedure, shortened: as §3

SHI-1 [23] = experiment: as above
Procedure, shortened: as §3

HL-60 [24] = experiment: area under dose-response curve (viability, 1 nM-10 uM) (fraction (0-1)); higher = more sensitive
Procedure, shortened: as §2

CCCc1cc(-c2nc(-c3ccc(C)cc3)cs2)ccn1 [Fatostatin]
Settings	IC50 (cell viability) [µM]
BV-173 [1]	6.07
HEL [2]	> 10
HL-60 [3]	8.84
K-562 [4]	> 10
KCL-22 [5]	> 10
KG-1	2.76
KU-812 [6]	> 10
LAMA-84 [7]	> 10
ML-2 [8]	6.69
MOLM-13	> 10
MV4-11	> 10
Mono-Mac-6 [9]	> 10
NOMO-1 [10]	> 10
SHI-1 [11]	4.85
THP-1	> 10

cell viability [%], HL-60 [12]
Settings	0.001 µM	0.01 µM	0.1 µM	1 µM	10 µM
co-treatment: AZD3965 100 nM	75.1	101.7	102	103	79.9
co-treatment: DMSO vehicle	92.9	96.1	101	98.5	94.39
co-treatment: GSK2194069 100 nM	95.9	94.22	96.1	92.5	70.7
co-treatment: pictilisib 100 nM	90.3	97.8	105	96.7	63.5

Settings	area under dose-response curve, co-treatment: AZD3965 100 nM	area under dose-response curve, co-treatment: DMSO vehicle	area under dose-response curve, co-treatment: GSK2194069 100 nM	area under dose-response curve, co-treatment: pictilisib 100 nM	cell viability, 1 nM [%]	cell viability, 10 nM [%]	cell viability, 100 nM [%]	cell viability, 1000 nM [%]	cell viability, 10000 nM [%]
BV-173 [13]	–	–	–	–	90.6	98.4	94.9	112	24.8
HEL [14]	–	–	–	–	92.6	97.8	92.1	108	90.4
HL-60 [15]	–	–	–	–	110	84.6	95.5	105	43.1
HL-60 [24]	< 0.0301	< 0.0301	0.0533	0.0342	–	–	–	–	–
K-562 [16]	–	–	–	–	103	95.9	102	117	60.2
KCL-22 [17]	–	–	–	–	98.3	86.2	92.5	113	55.3
KU-812 [18]	–	–	–	–	100	101	87.2	106	74.1
LAMA-84 [19]	–	–	–	–	105	92.2	104	109	79.8
ML-2 [20]	–	–	–	–	93.4	101	92	111	29.5
Mono-Mac-6 [21]	–	–	–	–	94.5	97.3	101	111	87.8
NOMO-1 [22]	–	–	–	–	98.3	91.3	104	111	97.4
SHI-1 [23]	–	–	–	–	106	91.7	105	114	14.4

O=C1c2cc([N+](=O)[O-])ccc2-n2c1nc1ccccc1c2=O [GNF-Pf-3777]
Settings	IC50 (cell viability) [µM]
BV-173 [1]	1.64
HEL [2]	0.934
HL-60 [3]	1.28
K-562 [4]	1.11
KCL-22 [5]	0.538
KG-1	1.29
KU-812 [6]	1.31
LAMA-84 [7]	1.83
ML-2 [8]	6.05
MOLM-13	1.58
MV4-11	1.5
Mono-Mac-6 [9]	1.78
NOMO-1 [10]	5.99
SHI-1 [11]	1.93
THP-1	1.22

cell viability [%], HL-60 [12]
Settings	0.001 µM	0.01 µM	0.1 µM	1 µM	10 µM
co-treatment: AZD3965 100 nM	103	100	105	89	2.3
co-treatment: DMSO vehicle	94.3	102	103	91.6	12.6
co-treatment: GSK2194069 100 nM	103	98.4	88.8	80.8	8.8
co-treatment: pictilisib 100 nM	95.5	101.2	92.2	78.63	6.29

Settings	area under dose-response curve, co-treatment: AZD3965 100 nM	area under dose-response curve, co-treatment: DMSO vehicle	area under dose-response curve, co-treatment: GSK2194069 100 nM	area under dose-response curve, co-treatment: pictilisib 100 nM	cell viability, 1 nM [%]	cell viability, 10 nM [%]	cell viability, 100 nM [%]	cell viability, 1000 nM [%]	cell viability, 10000 nM [%]
BV-173 [13]	–	–	–	–	95.9	104	89.5	66.4	4.9
HEL [14]	–	–	–	–	98.5	105	105	53.1	13.6
HL-60 [15]	–	–	–	–	89.7	92.2	105	59.1	0.853
HL-60 [24]	0.15	0.122	0.154	0.165	–	–	–	–	–
K-562 [16]	–	–	–	–	102	100	103	56.2	4.1
KCL-22 [17]	–	–	–	–	87.9	115	102	37	21.2
KU-812 [18]	–	–	–	–	91.6	91.1	87.9	53.4	6.51
LAMA-84 [19]	–	–	–	–	97.5	102	96.1	71.3	32.8
ML-2 [20]	–	–	–	–	96.7	99	97.8	94.1	28.8
Mono-Mac-6 [21]	–	–	–	–	86.3	104	90.9	66.3	6.53
NOMO-1 [22]	–	–	–	–	92.3	99.9	90.3	86.7	31.8
SHI-1 [23]	–	–	–	–	99.9	104	92	66.6	16.5

Cl.NC(CCC(=O)Nc1ccc([N+](=O)[O-])cc1)C(=O)O (configuration not stated) [GPNA]
Settings	IC50 (cell viability) [µM]
BV-173 [1]	> 10
HEL [2]	> 10
HL-60 [3]	> 10
K-562 [4]	> 10
KCL-22 [5]	> 10
KG-1	> 10
KU-812 [6]	> 10
LAMA-84 [7]	> 10
ML-2 [8]	> 10
MOLM-13	> 10
MV4-11	> 10
Mono-Mac-6 [9]	> 10
NOMO-1 [10]	> 10
SHI-1 [11]	> 10
THP-1	> 10

cell viability [%], HL-60 [12]
Settings	0.001 µM	0.01 µM	0.1 µM	1 µM	10 µM
co-treatment: AZD3965 100 nM	96.99	97.1	103.3	102	94.3
co-treatment: DMSO vehicle	98.13	100	98.7	102	98.5
co-treatment: GSK2194069 100 nM	99.6	104	99.4	85.4	96.8
co-treatment: pictilisib 100 nM	100.2	97.4	98.5	98.7	92.5

Settings	area under dose-response curve, co-treatment: AZD3965 100 nM	area under dose-response curve, co-treatment: DMSO vehicle	area under dose-response curve, co-treatment: GSK2194069 100 nM	area under dose-response curve, co-treatment: pictilisib 100 nM	cell viability, 1 nM [%]	cell viability, 10 nM [%]	cell viability, 100 nM [%]	cell viability, 1000 nM [%]	cell viability, 10000 nM [%]
BV-173 [13]	–	–	–	–	114	106	94.1	101	119
HEL [14]	–	–	–	–	95.2	104	106	91.5	104
HL-60 [15]	–	–	–	–	103	60.6	104	99.3	125
HL-60 [24]	< 0.0301	< 0.0301	< 0.0301	< 0.0301	–	–	–	–	–
K-562 [16]	–	–	–	–	108	96.3	100	109	120
KCL-22 [17]	–	–	–	–	106	91	110	96.5	102
KU-812 [18]	–	–	–	–	108	95.5	103	96.4	110
LAMA-84 [19]	–	–	–	–	109	109	98	111	100
ML-2 [20]	–	–	–	–	107	90.5	98.9	107	109
Mono-Mac-6 [21]	–	–	–	–	92.2	96.4	105	98.3	104
NOMO-1 [22]	–	–	–	–	107	102	101	105	105
SHI-1 [23]	–	–	–	–	107	91.6	94.9	99.5	98.3
